In patent US11084800B2 (Achillion Pharmaceuticals, Inc., priority 2017, dated 2021):

Each compound was assayed against Human Factor D (Homo sapiens (Human), UniProt P00746) (assay: Human Factor D Assay). Conditions: Table 6; Factor D 80 nM, substrate Z-L-Lys-SBz; read-out: IC50.
Sequence of Human Factor D (P00746 26-253): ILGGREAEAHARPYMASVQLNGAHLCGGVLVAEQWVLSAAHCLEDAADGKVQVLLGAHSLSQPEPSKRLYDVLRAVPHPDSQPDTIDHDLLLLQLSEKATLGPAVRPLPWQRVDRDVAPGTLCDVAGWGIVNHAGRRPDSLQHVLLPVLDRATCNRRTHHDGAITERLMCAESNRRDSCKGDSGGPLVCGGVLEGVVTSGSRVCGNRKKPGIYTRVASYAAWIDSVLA
Format: biochemical
Method in brief: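 Thioester substrate Z-L-Lys-SBz (100 μM) with Ellman's reagent DTNB (100 μM) reports activity of 80 nM human serum-derived enzyme, kinetically at 405 nm over 30 min. Compound preincubated 5 min, room temperature, pH 7.5 Tris/1 M NaCl; IC50 by nonlinear fit of rates.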
In the case of `C=CCOC[C@@]12C[C@@H](C(=O)Nc3nc(Br)ccc3C=C)N(C(=O)Cn3nc(C(C)=O)c4cc(-c5cnc(C)nc5)ccc43)[C@@H]1C2` [Compound 93, (1R,3S,5S)-2-(2-(3-Acetyl-5-(2-methylpyrimidin-5-yl)-1H-indazol-1-yl)acetyl)-5-((allyloxy)methyl)-N-(6-bromo-3-vinylpyridin-2-yl)-2-azabicyclo[3.1.0]hexane-3-carboxamide], the IC50 is reported as < 1 µM.
For `CNC[C@@]12C[C@@H](C(=O)Nc3nc(Br)ccc3C)N(C(=O)Cn3nc(C(C)=O)c4cc(-c5cnc(C)nc5)cc(C)c43)[C@@H]1C2` [Compound 94, (1R,3S,5R)-2-(2-(3-Acetyl-7-methyl-5-(2-methylpyrimidin-5-yl)-1H-indazol-1-yl)acetyl)-N-(6-bromo-3-methylpyridin-2-yl)-5-((methylamino)methyl)-2-azabicyclo[3.1.0]hexane-3-carboxamide], the IC50 was < 1 µM.
`CC(=O)c1nn(CC(=O)N2[C@H](C(=O)Nc3nc(Br)ccc3C)C[C@@]3(CNC(=O)C4=C(F)CCC4)C[C@@H]23)c2c(C)cc(-c3cnc(C)nc3)cc12` [Compound 95, (1R,3S,5R)-2-(2-(3-Acetyl-7-methyl-5-(2-methylpyrimidin-5-yl)-1H-indazol-1-yl)acetyl)-N-(6-bromo-3-methylpyridin-2-yl)-5-((2-fluorocyclopent-1-enecarboxamido)methyl)-2-azabicyclo[3.1.0]hexane-3-carboxamide] was tested, and the IC50 was < 1 µM.
In the case of `CC(=O)NC[C@@]12C[C@@H](C(=O)Nc3nc(Br)ccc3C)N(C(=O)Cn3nc(C(C)=O)c4cc(-c5cnc(C)nc5)cc(C)c43)[C@@H]1C2` [Compound 96, (1R,3S,5R)-5-(Acetamidomethyl)-2-(2-(3-acetyl-7-methyl-5-(2-methylpyrimidin-5-yl)-1H-indazol-1-yl)acetyl)-N-(6-bromo-3-methylpyridin-2-yl)-2-azabicyclo[3.1.0]hexane-3-carboxamide], the IC50 is reported as < 1 µM.
In the case of `CC(=O)c1nn(CC(=O)N2[C@H](C(=O)Nc3nc(Br)ccc3C)C[C@@]3(CNC(=O)c4ccccc4F)C[C@@H]23)c2c(C)cc(-c3cnc(C)nc3)cc12` [Compound 97, (1R,3S,5R)-2-(2-(3-Acetyl-7-methyl-5-(2-methylpyrimidin-5-yl)-1H-indazol-1-yl)acetyl)-N-(6-bromo-3-methylpyridin-2-yl)-5-((2-fluorobenzamido)methyl)-2-azabicyclo[3.1.0]hexane-3-carboxamide], the IC50 is reported as < 1 µM.
`COC[C@@]12C[C@@H](C(=O)Nc3nc(Br)ccc3C)N(C(=O)Cn3nc(C(C)=O)c4cc(-c5cnc(C)nc5)cc(C)c43)[C@@H]1C2` [Compound 98, (1R,3S,5S)-2-(2-(3-Acetyl-7-methyl-5-(2-methylpyrimidin-5-yl)-1H-indazol-1-yl)acetyl)-N-(6-bromo-3-methylpyridin-2-yl)-5-(methoxymethyl)-2-azabicyclo[3.1.0]hexane-3-carboxamide] was tested, and the IC50 was < 1 µM.
For `COC(=O)N[C@H](C(=O)NC[C@@]12C[C@@H](C(=O)Nc3nc(Br)ccc3C)N(C(=O)Cn3nc(C(C)=O)c4cc(-c5cnc(C)nc5)cc(C)c43)[C@@H]1C2)C(C)C` [Compound 99, methyl ((S)-1-((((lR,3S,5R)-2-(2-(3-acetyl-7-methyl-5-(2-methylpyrimidin-5-yl)-1H-indazol-1-yl)acetyl)-3-((6-bromo-3-methylpyridin-2-yl)carbamoyl)-2-azabicyclo[3.1.0]hexan-5-yl)methyl)amino)-3-methyl-1-oxobutan-2-yl)carbamate], the IC50 was < 1 µM.
In the case of `CC(=O)c1nn(CC(=O)N2[C@H](C(=O)Nc3nc(Br)ccc3C)C[C@@]3(CN(C)C)C[C@@H]23)c2c(C)cc(-c3cnc(C)nc3)cc12` [Compound 100, (1R,3S,5R)-2-(2-(3-acetyl-7-methyl-5-(2-methylpyrimidin-5-yl)-1H-indazol-1-yl)acetyl)-N-(6-bromo-3-methylpyridin-2-yl)-5-((dimethylamino)methyl)-2-azabicyclo[3.1.0]hexane-3-carboxamide], the IC50 is reported as < 1 µM.
In the case of `CC(=O)c1nn(CC(=O)N2[C@H](C(=O)Nc3nc(Br)ccc3C)C[C@@]3(CNS(C)(=O)=O)C[C@@H]23)c2c(C)cc(-c3cnc(C)nc3)cc12` [Compound 101, (1R,3S,5R)-2-(2-(3-Acetyl-7-methyl-5-(2-methylpyrimidin-5-yl)-1H-indazol-1-yl)acetyl)-N-(6-bromo-3-methylpyridin-2-yl)-5-(methylsulfonamidomethyl)-2-azabicyclo[3.1.0]hexane-3-carboxamide], the IC50 is reported as < 1 µM.
`CC(=O)c1nn(CC(=O)N2[C@H](C(=O)Nc3nc(Br)ccc3C)C[C@@]3(CNC(=O)CC(F)(F)F)C[C@@H]23)c2c(C)cc(-c3cnc(C)nc3)cc12` [Compound 102, (1R,3S,5R)-2-(2-(3-Acetyl-7-methyl-5-(2-methylpyrimidin-5-yl)-1H-indazol-1-yl)acetyl)-N-(6-bromo-3-methylpyridin-2-yl)-5-((3,3,3-trifluoropropanamido)methyl)-2-azabicyclo[3.1.0]hexane-3-carboxamide] was tested, and the IC50 was < 1 µM.
For `CC(=O)c1nn(CC(=O)N2[C@H](C(=O)Nc3nc(Br)ccc3C)C[C@@]3(C)C[C@@H]23)c2ccc(-c3cnc(CN(C)C)nc3)cc12` [Compound 103, (1R,3S,5R)-2-(2-(3-Acetyl-5-(2-((dimethylamino)methyl)pyrimidin-5-yl)-1H-indazol-1-yl)acetyl)-N-(6-bromo-3-methylpyridin-2-yl)-5-methyl-2-azabicyclo[3.1.0]hexane-3-carboxamide], the IC50 was < 1 µM.
In the case of `CC(=O)c1nn(CC(=O)N2[C@H](C(=O)Nc3nc(Br)c(F)cc3C)C[C@@]3(C)C[C@@H]23)c2cnc(-c3cnc(C)nc3)cc12` [Compound 104, (1R,3S,5R)-2-(2-(3-Acetyl-5-(2-methylpyrimidin-5-yl)-1H-pyrazolo[3,4-c]pyridin-1-yl)acetyl)-N-(6-bromo-5-fluoro-3-methylpyridin-2-yl)-5-methyl-2-azabicyclo[3.1.0]hexane-3-carboxamide], the IC50 is reported as < 1 µM.
For `CC(=O)c1nn(CC(=O)N2[C@H](C(=O)Nc3cccc(O)n3)C[C@@]3(C)C[C@@H]23)c2c(C)cc(-c3cnc(C)nc3)cc12` [Compound 105, (1R,3S,5R)-2-(2-(3-Acetyl-7-methyl-5-(2-methylpyrimidin-5-yl)-1H-indazol-1-yl)acetyl)-N-(6-hydroxypyridin-2-yl)-5-methyl-2-azabicyclo[3.1.0]hexane-3-carboxamide], the IC50 was < 1 µM.
In the case of `COc1ncc(-c2ccc3c(c2)c(C(C)=O)nn3CC(=O)N2[C@H](C(=O)Nc3cccc(Br)n3)C[C@@]3(C)C[C@@H]23)cn1` [Compound 108, (1R,3S,5R)-2-(2-(3-Acetyl-5-(2-methoxypyrimidin-5-yl)-1H-indazol-1-yl)acetyl)-N-(6-bromopyridin-2-yl)-5-methyl-2-azabicyclo[3.1.0]hexane-3-carboxamide], the IC50 is reported as < 1 µM.
For `CC(=O)c1nn(CC(=O)N2C[C@H]3C[C@H]3[C@H]2C(=O)O)c2c(C)cc(-c3cnc(C)nc3)cc12` [Compound 111, (1R,2S,5S)-3-(2-(3-acetyl-7-methyl-5-(2-methylpyrimidin-5-yl)-1H-indazol-1-yl)acetyl)-3-azabicyclo[3.1.0]hexane-2-carboxylic acid], the IC50 was > 10 µM.
For `CC(=O)c1nn(CC(=O)N2[C@H](C(=O)Nc3nc(Br)ccc3C3CC3)C[C@@]3(CN(C)C)C[C@@H]23)c2ccc(-c3cnc(C)nc3)cc12` [Compound 112, (1R,3S,5R)-2-(2-(3-Acetyl-5-(2-methylpyrimidin-5-yl)-1H-indazol-1-yl)acetyl)-N-(6-bromo-3-cyclopropylpyridin-2-yl)-5-((dimethylamino)methyl)-2-azabicyclo[3.1.0]hexane-3-carboxamide], the IC50 was < 1 µM.
With `CC(=O)c1nn(CC(=O)N2[C@H](C(=O)Nc3nc(Br)ccc3C)C[C@@]3(CNCCF)C[C@@H]23)c2c(C)cc(-c3cnc(C)nc3)cc12` [Compound 113, (1R,3S,5R)-2-(2-(3-Acetyl-7-methyl-5-(2-methylpyrimidin-5-yl)-1H-indazol-1-yl)acetyl)-N-(6-bromo-3-methylpyridin-2-yl)-5-((2-fluoroethylamino)methyl)-2-azabicyclo[3.1.0]hexane-3-carboxamide] the IC50 was < 1 µM.
In the case of `COCc1cc(-c2cnc(C)nc2)cc2c(C(C)=O)nn(CC(=O)N3[C@H](C(=O)Nc4nc(Br)ccc4C)C[C@@]4(COC)C[C@@H]34)c12` [Compound 114, (1R,3S,5S)-2-(2-(3-Acetyl-7-(methoxymethyl)-5-(2-methylpyrimidin-5-yl)-1H-indazol-1-yl)acetyl)-N-(6-bromo-3-methylpyridin-2-yl)-5-(methoxymethyl)-2-azabicyclo[3.1.0]hexane-3-carboxamide], the IC50 is reported as < 1 µM.
With `Cc1ncc(-c2cc(C)c3c(c2)c(C(C)O)nn3CC(=O)N2C[C@H]3C[C@H]3[C@H]2C(=O)Nc2nc(Br)ccc2C)cn1` (stereo partly drawn) [Compound 115, (1R,2S,5S)-N-(6-bromo-3-methylpyridin-2-yl)-3-(2-(3-(1-hydroxyethyl)-7-methyl-5-(2-methylpyrimidin-5-yl)-1H-indazol-1-yl)acetyl)-3-azabicyclo[3.1.0]hexane-2-carboxamide] the IC50 was 1 to 10 µM.
In the case of `CC(=O)c1nn(CC(=O)N2[C@H](C(=O)Nc3cc(F)cc(Br)n3)C[C@@]3(C)C[C@@H]23)c2c(C)cc(-c3cnc(C)nc3)cc12` [Compound 116, (1R,3S,5R)-2-(2-(3-Acetyl-7-methyl-5-(2-methylpyrimidin-5-yl)-1H-indazol-1-yl)acetyl)-N-(6-bromo-4-fluoropyridin-2-yl)-5-methyl-2-azabicyclo[3.1.0]hexane-3-carboxamide], the IC50 is reported as < 1 µM.
`CC(=O)c1nn(CC(=O)N2C[C@H](F)C[C@H]2C(=O)Nc2nc(Br)ccc2CC(=O)N(C)C)c2ccc(-c3cnc(C)nc3)cc12` [Compound 117, (2S,4R)-1-(2-(3-Acetyl-5-(2-methylpyrimidin-5-yl)-1H-indazol-1-yl)acetyl)-N-(6-bromo-3-(2-(dimethylamino)-2-oxoethyl)pyridin-2-yl)-4-fluoropyrrolidine-2-carboxamide] was tested, and the IC50 was < 1 µM.
